# Results taken from patent publication US8003649B2 (AstraZeneca AB, priority 2007, dated 2011).
# Target: T1, Androgen Receptor (AR) (Homo sapiens, UniProt P10275, T878A)
# T1 construct: cell based immuno-fluorescence assay using the LNCaP prostate epithelial cell line; endogenous in cells; host or cells: LNCaP clone FGC (ATCC CRL-1740)
# T1 sequence (P10275 1-920 T878A): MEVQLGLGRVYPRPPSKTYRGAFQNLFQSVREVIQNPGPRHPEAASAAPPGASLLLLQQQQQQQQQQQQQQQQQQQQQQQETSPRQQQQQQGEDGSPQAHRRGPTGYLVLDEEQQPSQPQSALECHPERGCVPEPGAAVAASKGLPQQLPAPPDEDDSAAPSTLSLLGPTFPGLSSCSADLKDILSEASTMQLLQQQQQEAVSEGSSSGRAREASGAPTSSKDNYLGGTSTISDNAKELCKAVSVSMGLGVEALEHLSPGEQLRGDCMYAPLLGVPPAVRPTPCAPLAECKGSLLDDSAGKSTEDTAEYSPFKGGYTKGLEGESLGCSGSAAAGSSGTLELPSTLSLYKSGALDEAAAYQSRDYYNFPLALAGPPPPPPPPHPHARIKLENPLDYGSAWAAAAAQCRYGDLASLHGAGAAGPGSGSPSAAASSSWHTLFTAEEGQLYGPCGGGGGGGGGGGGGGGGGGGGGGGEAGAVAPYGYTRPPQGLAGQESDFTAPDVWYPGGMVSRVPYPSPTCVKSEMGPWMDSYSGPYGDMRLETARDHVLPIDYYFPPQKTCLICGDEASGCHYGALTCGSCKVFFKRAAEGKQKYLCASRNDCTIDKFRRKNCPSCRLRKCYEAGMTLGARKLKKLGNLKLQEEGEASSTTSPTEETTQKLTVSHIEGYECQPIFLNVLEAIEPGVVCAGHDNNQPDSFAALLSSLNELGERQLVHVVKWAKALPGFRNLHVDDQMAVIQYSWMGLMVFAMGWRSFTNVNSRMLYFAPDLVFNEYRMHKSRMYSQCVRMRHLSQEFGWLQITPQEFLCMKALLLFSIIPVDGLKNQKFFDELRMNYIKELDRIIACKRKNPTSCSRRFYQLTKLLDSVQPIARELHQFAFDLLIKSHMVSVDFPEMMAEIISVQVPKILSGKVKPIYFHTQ
# Test: LNCaP Androgen Receptor Down-regulation Cell Assay (immunofluorescence end point)
# Type: cell-based
# Settings: LNCaP prostate carcinoma cells, compound incubation 20-22 hours, 50% reduction of the AR signal; read-out: Androgen Receptor Down-regulation Assay (a) IC50/μM
# Outline: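 LNCaP cells in medium with 5% charcoal-stripped FBS were plated overnight, then treated with a compound dilution series for 20-22 h at 37° C. After fixation, permeabilisation and immunostaining, AR-associated green fluorescence was quantified by laser-scanning microplate cytometry; AR down-regulation expressed as IC50 from fitted dose-response curves.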
row,Compound,DC50
1,Fc1ccc(F)c(CN2CCN(c3ccc4nnc(C(F)F)n4n3)CC2)c1 [Example 259],4.8 µM
2,N#Cc1cc(CN2CCN(c3ccc4nnc(C(F)F)n4n3)CC2)ccc1F [Example 260],5.6 µM
3,COc1ccc(CN2CCN(c3ccc4nnc(C(F)F)n4n3)CC2)cc1F [Example 261],7.9 µM
4,N#Cc1ccc(CN2CCN(c3ccc4nnc(C(F)F)n4n3)CC2)c(F)c1 [Example 262],25 µM
5,FC(F)c1nnc2ccc(N3CCN(Cc4csc5ccccc45)CC3)nn12 [Example 264],0.95 µM
6,FC(F)c1nnc2ccc(N3CCN(Cc4c[nH]c5ccccc45)CC3)nn12 [Example 265],3.8 µM
7,"FC(F)c1nnc2ccc(N3CCC(c4c[nH]c5ccccc45)CC3)nn12 [Example 266, 3-(difluoromethyl)-6-[4-(1H-indol-3-yl)piperidin-1-yl][1,2,4]triazolo[4,3-b]pyridazine]",0.63 µM
8,COc1cccc(OC2CCN(c3ccc4nnc(C(F)F)n4n3)CC2)c1 [Example 267],0.85 µM
9,Fc1cccc(OC2CCN(c3ccc4nnc(C(F)F)n4n3)CC2)c1 [Example 268],0.91 µM
10,"C[C@H](c1ccc(F)cc1)N1CCN(c2ccc3nnc(C(F)F)n3n2)CC1 [Example 269, 3-(difluoromethyl)-6-[4-[(1R)-1-(4-fluorophenyl)ethyl]piperazin-1-yl][1,2,4]triazolo[4,3-b]pyridazine]",2 µM
11,"CC(C)(c1ccc(F)cc1)N1CCN(c2ccc3nnc(C(F)F)n3n2)CC1 [Example 271, 3-(difluoromethyl)-6-[4-[1-(4-fluorophenyl)-1-methylethyl]piperazin-1-yl][1,2,4]triazolo[4,3-b]pyridazine]",1.8 µM
12,"Fc1cccc(CN2CC=C(c3ccc4nnc(C(F)(F)F)n4n3)CC2)c1 [Example 272, 6-[1-(3-fluorobenzyl)-1,2,3,6-tetrahydropyridin-4-yl]-3-(trifluoromethyl)-[1,2,4]triazolo[4,3-b]pyridazine]",1.8 µM
13,Fc1ccc(-c2nc(N3CCN(c4ccc5nnc(C(F)(F)F)n5n4)CC3)no2)cc1 [Example 274],6.1 µM
14,FC(F)(F)c1nnc2ccc(N3CCN(c4noc(-c5ccccc5)n4)CC3)nn12 [Example 275],6 µM
15,N#Cc1ccc(-c2nc(N3CCN(c4ccc5nnc(C(F)(F)F)n5n4)CC3)no2)cc1 [Example 277],2 µM
16,N#Cc1ccc2[nH]cc(CN3CCN(c4ccc5nnc(C(F)(F)F)n5n4)CC3)c2c1 [Example 278],0.65 µM
17,FC(F)(F)c1nnc2ccc(N3CCN(Cc4c[nH]c5ccc(Cl)cc45)CC3)nn12 [Example 280],0.78 µM
18,FC(F)(F)c1nnc2ccc(N3CCN(Cc4c[nH]c5ccc(Br)cc45)CC3)nn12 [Example 281],0.8 µM
19,FC(F)(F)c1nnc2ccc(N3CCN(Cc4c[nH]c5cccc(Cl)c45)CC3)nn12 [Example 282],2.4 µM
20,Fc1ccc2[nH]cc(CN3CCN(c4ccc5nnc(C(F)(F)F)n5n4)CC3)c2c1 [Example 283],0.78 µM
21,Fc1ccc2c(CN3CCN(c4ccc5nnc(C(F)(F)F)n5n4)CC3)c[nH]c2c1 [Example 284],0.98 µM
22,"FC(F)(F)c1nnc2ccc(N3CCN(Cc4n[nH]c5ccccc45)CC3)nn12 [Example 285, 6-[4-(1H-indazol-3-ylmethyl)piperazin-1-yl]-3-(trifluoromethyl)[1,2,4]triazolo[4,3-b]pyridazine]",2.7 µM
23,N#Cc1ccc2[nH]cc(CN3CCN(c4ccc5nnc(C(F)F)n5n4)CC3)c2c1 [Example 286],8.5 µM
24,FC(F)c1nnc2ccc(N3CCN(Cc4c[nH]c5ccc(Cl)cc45)CC3)nn12 [Example 287],2 µM
25,FC(F)c1nnc2ccc(N3CCN(Cc4c[nH]c5ccc(Br)cc45)CC3)nn12 [Example 288],3.3 µM
26,FC(F)c1nnc2ccc(N3CCN(Cc4c[nH]c5cccc(Cl)c45)CC3)nn12 [Example 289],2.7 µM
27,Fc1ccc2[nH]cc(CN3CCN(c4ccc5nnc(C(F)F)n5n4)CC3)c2c1 [Example 290],5.8 µM
28,FC(F)c1nnc2ccc(N3CCN(Cc4c(Cl)[nH]c5ccccc45)CC3)nn12 [Example 291],> 9.7 µM
29,Fc1ccc2c(CN3CCN(c4ccc5nnc(C(F)F)n5n4)CC3)c[nH]c2c1 [Example 292],7 µM

# Continued, values first:
row,DC50,Compound
1,9.5 µM,"FC(F)(F)c1nnc2ccc(N3CCC(COC4CCOCC4)CC3)nn12 [Example 294, 6-[4-[(tetrahydro-2H-pyran-4-yloxy)methyl]piperidin-1-yl]-3-(trifluoromethyl)[1,2,4]triazolo[4,3-b]pyridazine]"
2,3.4 µM,FC(F)(F)c1nnc2ccc(N3CCC(COCC4CC4)CC3)nn12 [Example 295]
3,2.1 µM,COCCOCC1CCN(c2ccc3nnc(C(F)(F)F)n3n2)CC1 [Example 296]
4,5.7 µM,CC(C)OCC1CCN(c2ccc3nnc(C(F)(F)F)n3n2)CC1 [Example 298]
5,0.84 µM,FC(F)(F)c1nnc2ccc(N3CCC(c4noc(-c5cccc(Cl)c5)n4)CC3)nn12 [Example 299]
6,1 µM,Fc1ccc(-c2nc(C3CCN(c4ccc5nnc(C(F)(F)F)n5n4)CC3)no2)cc1 [Example 300]
7,1.8 µM,FC(F)(F)c1nnc2ccc(N3CCC(c4noc(-c5ccccc5)n4)CC3)nn12 [Example 301]
8,1.1 µM,Fc1cccc(-c2nc(C3CCN(c4ccc5nnc(C(F)(F)F)n5n4)CC3)no2)c1 [Example 302]
9,5.8 µM,N#Cc1cccc(-c2nc(C3CCN(c4ccc5nnc(C(F)(F)F)n5n4)CC3)no2)c1 [Example 303]
10,1.8 µM,"FC(F)(F)c1nnc2ccc(N3CCC(OCC4CC4)CC3)nn12 [Example 304, 6-[4-(cyclopropylmethoxy)piperidin-1-yl]-3-(trifluoromethyl)[1,2,4]triazolo[4,3-b]pyridazine]"
11,3.4 µM,"C[C@H](c1ccc(C#N)cc1)N1CCN(c2ccc3nnc(C(F)(F)F)n3n2)CC1 [Example 307, 4-[(1R)-1-[4-[3-(trifluoromethyl)[1,2,4]triazolo[4,3-b]pyridazin-6-yl]piperazin-1-yl]ethyl]benzonitrile]"
12,1.4 µM,"C[C@H](c1ccc(F)cc1)N1CCN(c2ccc3nnc(C(F)(F)F)n3n2)CC1 [Example 308, 6-[4-[(1R)-1-(4-fluorophenyl)ethyl]piperazin-1-yl]-3-(trifluoromethyl)[1,2,4]triazolo[4,3-b]pyridazine]"
13,1.6 µM,"CC(C)(c1ccc(F)cc1)N1CCN(c2ccc3nnc(C(F)(F)F)n3n2)CC1 [Example 309, 6-[4-[1-(4-fluorophenyl)-1-methylethyl]piperazin-1-yl]-3-(trifluoromethyl)[1,2,4]triazolo[4,3-b]pyridazine]"
14,3.2 µM,"OC1(c2cccc(F)c2)CCN(c2ccc3nnc(C(F)(F)F)n3n2)CC1 [Example 310, 4-(3-fluorophenyl)-1-[3-(trifluoromethyl)[1,2,4]triazolo[4,3-b]pyridazin-6-yl]piperidin-4-ol]"
15,5 µM,COc1ccc(C2(O)CCN(c3ccc4nnc(C(F)(F)F)n4n3)CC2)cc1 [Example 311]
16,2.6 µM,COc1cccc(C2(O)CCN(c3ccc4nnc(C(F)(F)F)n4n3)CC2)c1 [Example 312]
17,1.8 µM,OC1(c2cccc(Cl)c2)CCN(c2ccc3nnc(C(F)(F)F)n3n2)CC1 [Example 313]
18,4.6 µM,COc1ccccc1C1(O)CCN(c2ccc3nnc(C(F)(F)F)n3n2)CC1 [Example 314]
19,2 µM,"OC1(c2ccccc2Cl)CCN(c2ccc3nnc(C(F)(F)F)n3n2)CC1 [Example 315, 4-(2-chlorophenyl)-1-[3-(trifluoromethyl)[1,2,4]triazolo[4,3-b]pyridazin-6-yl]piperidin-4-ol]"
20,4.1 µM,"N#Cc1ccccc1C1(O)CCN(c2ccc3nnc(C(F)(F)F)n3n2)CC1 [Example 317, 2-[4-hydroxy-1-[3-(trifluoromethyl)[1,2,4]triazolo[4,3-b]pyridazin-6-yl]piperidin-4-yl]benzonitrile]"
21,8.6 µM,"OC1(c2cncc(C(F)(F)F)c2)CCN(c2ccc3nnc(C(F)(F)F)n3n2)CC1 [Example 320, 4-[5-(trifluoromethyl)pyridin-3-yl]-1-[3-(trifluoromethyl)[1,2,4]triazolo[4,3-b]pyridazin-6-yl]piperidin-4-ol]"
22,8 µM,"COc1ccc(C2(O)CCN(c3ccc4nnc(C(F)(F)F)n4n3)CC2)cn1 [Example 321, 4-(6-methoxypyridin-3-yl)-1-[3-(trifluoromethyl)[1,2,4]triazolo[4,3-b]pyridazin-6-yl]piperidin-4-ol]"
